Laboratory results published in patent US20130230460A1, “USE OF CYANINE DYES FOR THE DETECTION OF TAU FOR DIAGNOSIS OF EARLY-STAGE TAUOPATHIES” (GE HEALTHCARE LIMITED, priority 2010, published 2013).

How the values were obtained:
[1] = tested on: insoluble tau aggregates; details: J Med Chem, 2009, 52, 3539; cited from earlier work
[2] = target: T1, tau aggregates (Tau-412) (Homo sapiens, UniProt P10636); assay: In vitro binding assay with aggregated tau (fluorescence); details: for Kd: aggregated tau 10 μg/sample, 1 h at RT, triplicate; for Selectivity Tau: Aβ1-40: ratio of Kd Aβ1-40 to Kd tau
T1 construct: purchased Stratech
T1 sequence (P10636 1-412 isoform P10636-7): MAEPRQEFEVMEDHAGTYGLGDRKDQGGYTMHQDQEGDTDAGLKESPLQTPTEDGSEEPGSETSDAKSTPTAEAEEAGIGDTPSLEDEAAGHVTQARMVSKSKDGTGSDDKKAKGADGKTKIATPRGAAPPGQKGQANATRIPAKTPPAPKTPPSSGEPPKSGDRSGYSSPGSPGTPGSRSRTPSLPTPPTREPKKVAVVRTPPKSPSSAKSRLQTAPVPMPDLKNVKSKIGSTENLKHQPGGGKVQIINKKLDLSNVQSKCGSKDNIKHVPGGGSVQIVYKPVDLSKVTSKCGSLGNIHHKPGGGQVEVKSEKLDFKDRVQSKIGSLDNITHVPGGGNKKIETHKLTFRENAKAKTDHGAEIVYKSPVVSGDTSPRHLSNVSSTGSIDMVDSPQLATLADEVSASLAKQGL
Protocol: Tau protein (Tau-412 with 2 nucleotide-binding motifs and 4 repeat binding regions, 42.9 kDa, 1 mg/ml, Stratech) was incubated in the presence of heparin (0.1 mg/ml) for 72 h at 37° C. with continuous shaking to generate tau aggregates.
(§1) The two test compounds 18 (see Example 6) and 20 (see Example 5), were dissolved and serially diluted in DMSO. Samples with aggregated tau and Aβ1-40 (10 μg/sample) were incubated with a serial dilution of each test compound (concentration range 1 nM-100 μM) in 96-well plates for 1 h at RT. Following incubation, samples were transferred to spin column plates (Thermo Fisher) and then centrifugated for 2 min at 1,500×g to remove free compound from the samples. Finally, the samples were transferred to black 96-well plates, and the fluorescence intensity measured at […] using a Tecan plate reader. All experiments were performed in triplicate. Kd values for each compound was calculated by fitting the data to a non-linear binding curve using Prism (GraphPad).

[3] = target: T2, Aβ1-40 aggregates (Homo sapiens, UniProt P05067); assay: In vitro binding assay with aggregated Aβ1-40 (fluorescence); details: aggregated Aβ1-40 10 μg/sample, 1 h at RT, triplicate
T2 construct: Aβ1-40 protein (4.3 kDa, 1 mg/ml, Invitrogen); purchased Invitrogen
T2 sequence (P05067 672-711 limits assumed): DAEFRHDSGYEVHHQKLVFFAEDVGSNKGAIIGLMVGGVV
Protocol: as §1, with “Aβ1-40 protein (4.3 kDa, 1 mg/ml, Invitrogen) was incubated at room temperature (RT) for 72 h with continuous shaking to generate Aβ1-40 aggregates. The two” for “The two”

Compound	Tau aggregation inhibition (in words) [1]	Selectivity for aggregated tau compared to Aβ1-40 aggregates (in words) [2]	Kd [2] [µM]	Selectivity Tau: Aβ1-40 [2]	Kd [3] [µM]
CCC(/C=C1\Sc2ccc(OC)cc2N1CCO)=C\c1sc2ccc(OC)cc2[n+]1CCO [Compound N744]	potent tau aggregation inhibitors				
COc1ccc2c(c1)N(CCO)/C(=C/C(C)=C/c1sc3ccc(OC)cc3[n+]1CCF)S2 [Compound 20, 3-(2-Fluoroethyl)-2-((1E,3Z)-3-(3-(2-hydroxyethyl)-5-methoxybenzo[d]thiazol-2(3H)-ylidene)-2-methylprop-1-en-1-yl)-5-methoxybenzo[d]thiazol-3-ium]		highly selective	0.00075 ± 0.00059	20,800	15.6 ± 8.1
COc1ccc2c(c1)N(CCF)/C(=C/C(C)=C/c1sc3ccc(OC)cc3[n+]1CCF)S2 [Compound 18, 3-(2-Fluoroethyl)-2-((1E,3Z)-3-(3-(2-fluoroethyl)-5-methoxybenzo[d]thiazol-2(3H)-ylidene)-2-methylprop-1-en-1-yl)-5-methoxybenzo[d]thiazol-3-ium]		highly selective	0.00088 ± 0.0009	33,863	29.8 ± 21.3
